Experiments:
Type in all cases: in vivo
[1] = system: Plutella xylostella (Diamond Back Moth); assay: Example B4: Plutella xylostella (diamond back moth), artificial diet, eggs, 24-well; conditions: 192 h, application rate of 200 ppm, 8 days after infestation, eggs, read-out: control in at least one of the two categories (mortality or growth inhibition)
Experimental: 24-well microtiter plates with artificial diet were treated with aqueous test solutions prepared from 10′000 ppm DMSO stock solutions by pipetting. After drying, Plutella eggs were pipetted through a plastic stencil onto a gel blotting paper and the plate was closed with it. The samples were assessed for mortality and growth inhibition in comparison to untreated samples 8 days after infestation.

[2] = system: Chilo suppressalis (Striped Rice Stemborer); assay: Example B3: Chilo suppressalis (striped rice stemborer), artificial diet, L2 larvae; conditions: 144 h, application rate of 200 ppm, 6 days after infestation, L2 larvae, read-out: control in at least one of the three categories (mortality, anti-feedant effect, or growth inhibition)
How it was run: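 Diet-incorporation surface assay: aqueous dilutions of 10'000 ppm DMSO stock applied to artificial diet, dried; 6-8 L2 larvae/well; read day 6 post-infestation for mortality, antifeedant effect, growth inhibition vs untreated. Active if any category above untreated.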

[3] = system: Diabrotica Balteata (Corn Root Worm); assay: Example B1: Diabrotica balteata (corn root worm), maize sprouts sprayed, L2 larvae; conditions: 96 h, application rate of 200 ppm, 4 days after infestation, L2 larvae, read-out: control in at least one of the two categories (mortality or growth inhibition)
How it was run: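 Read-out is mortality plus growth inhibition relative to untreated controls, assessed 4 days after infestation. Sprouts resting on agar are sprayed with aqueous solutions derived from 10′000 ppm DMSO stocks and left to dry before L2 larvae (6 to 10 per well) are added.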

[4] = system: Spodoptera littoralis (Egyptian Cotton Leaf Worm); assay: Example B7: Spodoptera littoralis (Egyptian cotton leaf worm), cotton leaf discs sprayed, L1 larvae; conditions: foliar, 72 h, application rate of 200 ppm, 3 days after infestation, L1 larvae, read-out: control in at least one of the three categories (mortality, anti-feedant effect, or growth inhibition)
Experimental: Cotton leaf discs were placed onto agar in 24-well microtiter plates and sprayed with aqueous test solutions prepared from 10′000 ppm DMSO stock solutions. After drying the leaf discs were infested with five L1 larvae. The samples were assessed for mortality, anti-feeding effect, and growth inhibition in comparison to untreated samples 3 days after infestation. Control of Spodoptera littoralis by a test sample is given when at least one of the categories mortality, anti-feedant effect, and growth inhibition is higher than the untreated sample.

CC(c1ncnn1-c1ccc(C#N)cn1)N(C)c1ncnc2c(Br)cc(Br)cc12 (stereo not shown) [P.257, 6-[5-[1-[(6,8-dibromoquinazolin-4-yl)-methyl-amino]ethyl]-1,2,4-triazol-1-yl]pyridin-3-carbonitrile]
≥ 80%: percent control (mortality or growth inhibition) at 200 ppm [1] | percent control (mortality, anti-feedant effect or growth inhibition) at 200 ppm [2] | percent control (mortality or growth inhibition) at 200 ppm [3] | percent control (mortality, anti-feedant effect or growth inhibition) at 200 ppm [4]

CC(c1nccnc1-n1nccn1)N(C)c1ncnc2c(C(F)(F)F)cc(Br)cc12 (stereo not shown) [P.105, 6-bromo-N-methyl-N-[1-[3-(triazol-2-yl)pyrazin-2-yl]ethyl]-8-(trifluoromethyl)quinazolin-4-amine]
≥ 80%: percent control (mortality or growth inhibition) at 200 ppm [1] | percent control (mortality, anti-feedant effect or growth inhibition) at 200 ppm [2] | percent control (mortality or growth inhibition) at 200 ppm [3] | percent control (mortality, anti-feedant effect or growth inhibition) at 200 ppm [4]

CC(c1nccnc1-c1ccc(C#N)cn1)N(C)c1ncnc2c(Br)cc(C(F)(F)F)cc12 (stereo not shown) [P.124, 6-[3-[1-[[8-bromo-6-(trifluoromethyl)quinazolin-4-yl]-methyl-amino]ethyl]pyrazin-2-yl]pyridine-3-carbonitrile]
≥ 80%: percent control (mortality or growth inhibition) at 200 ppm [1] | percent control (mortality, anti-feedant effect or growth inhibition) at 200 ppm [2] | percent control (mortality or growth inhibition) at 200 ppm [3] | percent control (mortality, anti-feedant effect or growth inhibition) at 200 ppm [4]

CC(c1nccnc1-n1nccn1)N(C)c1ncnc2c(C(F)(F)F)cc(Cl)cc12 (stereo not shown) [P.129, 6-chloro-N-methyl-N-[1-[3-(triazol-2-yl)pyrazin-2-yl]ethyl]-8-(trifluoromethyl)quinazolin-4-amine]
≥ 80%: percent control (mortality or growth inhibition) at 200 ppm [1] | percent control (mortality, anti-feedant effect or growth inhibition) at 200 ppm [2] | percent control (mortality or growth inhibition) at 200 ppm [3] | percent control (mortality, anti-feedant effect or growth inhibition) at 200 ppm [4]

C[C@H](Nc1ccnc2c(C(F)(F)F)cc(C(F)(F)F)cc12)c1ncnn1-c1ccc(C#N)cn1 [P.251, 6-[5-[(1S)-1-[[6,8-bis(trifluoromethyl)-4-quinolyl]amino]ethyl]-1,2,4-triazol-1-yl]pyridine-3-carbonitrile]
≥ 80%: percent control (mortality or growth inhibition) at 200 ppm [1] | percent control (mortality, anti-feedant effect or growth inhibition) at 200 ppm [2] | percent control (mortality or growth inhibition) at 200 ppm [3] | percent control (mortality, anti-feedant effect or growth inhibition) at 200 ppm [4]

CC(Nc1ncnc2c(Cl)cc(C(F)(F)F)cc12)c1nccnc1-n1nccn1 (stereo not shown) [P.35, 8-chloro-N-[1-[3-(triazol-2-yl)pyrazin-2-yl]ethyl]-6-(trifluoromethyl)quinazolin-4-amine]
≥ 80%: percent control (mortality or growth inhibition) at 200 ppm [1] | percent control (mortality, anti-feedant effect or growth inhibition) at 200 ppm [2] | percent control (mortality or growth inhibition) at 200 ppm [3] | percent control (mortality, anti-feedant effect or growth inhibition) at 200 ppm [4]

C[C@H](Nc1ccnc2c(C(F)(F)F)cc(Br)cc12)c1ncnn1-c1ncccn1 [P.253, 6-bromo-N-[(1S)-1-(2-pyrimidin-2-yl-1,2,4-triazol-3-yl)ethyl]-8-(trifluoromethyl)quinolin-4-amine]
≥ 80%: percent control (mortality or growth inhibition) at 200 ppm [1] | percent control (mortality, anti-feedant effect or growth inhibition) at 200 ppm [2] | percent control (mortality or growth inhibition) at 200 ppm [3] | percent control (mortality, anti-feedant effect or growth inhibition) at 200 ppm [4]

CC(c1nccnc1-c1ncccn1)N(C)c1ncnc2c(Cl)cc(C(F)(F)F)cc12 (stereo not shown) [P.100, 8-chloro-N-methyl-N-[1-(3-pyrimidin-2-ylpyrazin-2-yl)ethyl]-6-(trifluoromethyl)quinazolin-4-amine]
≥ 80%: percent control (mortality or growth inhibition) at 200 ppm [1] | percent control (mortality, anti-feedant effect or growth inhibition) at 200 ppm [2] | percent control (mortality or growth inhibition) at 200 ppm [3] | percent control (mortality, anti-feedant effect or growth inhibition) at 200 ppm [4]

CC(Nc1ncnc2c(OC(F)(F)F)cc(Br)cc12)c1ncnn1-c1ccc(C#N)cn1 (stereo not shown) [P.247, 6-[5-[1-[[6-bromo-8-(trifluoromethoxy)quinazo-lin-4-yl]amino]ethyl]-1,2,4-triazol-1-yl]pyridine-3-carbonitrile]
≥ 80%: percent control (mortality or growth inhibition) at 200 ppm [1] | percent control (mortality, anti-feedant effect or growth inhibition) at 200 ppm [2] | percent control (mortality or growth inhibition) at 200 ppm [3] | percent control (mortality, anti-feedant effect or growth inhibition) at 200 ppm [4]

C[C@H](Nc1ncnc2c(C(F)(F)F)cc(I)cc12)c1ncnn1-c1ccc(C#N)cn1 [P.218, 6-[5-[(1S)-1-[[6-iodo-8-(trifluoromethyl)quinazolin-4-yl]amino]ethyl]-1,2,4-triazol-1-yl]pyridine-3-carbonitirle]
≥ 80%: percent control (mortality or growth inhibition) at 200 ppm [1] | percent control (mortality, anti-feedant effect or growth inhibition) at 200 ppm [2] | percent control (mortality or growth inhibition) at 200 ppm [3] | percent control (mortality, anti-feedant effect or growth inhibition) at 200 ppm [4]

C[C@H](Nc1ccnc2c(Br)cc(C(F)(F)F)cc12)c1ncnn1-c1ncccn1 [P.209, 8-bromo-N-[(1S)-1-(2-pyrimidin-2-yl-1,2,4-triazol-3-yl)ethyl]-6-(trifluoromethyl)quinolin-4-amine]
≥ 80%: percent control (mortality or growth inhibition) at 200 ppm [1] | percent control (mortality, anti-feedant effect or growth inhibition) at 200 ppm [2] | percent control (mortality or growth inhibition) at 200 ppm [3] | percent control (mortality, anti-feedant effect or growth inhibition) at 200 ppm [4]

CC(c1nccnc1-c1ccc(OC(F)F)cn1)N(C)c1ncnc2c(C(F)(F)F)cc(C(F)(F)F)cc12 (stereo not shown) [P.110, N-[1-[3-[5-(difluoromethoxy)-2-pyridyl]pyrazin-2-yl]ethyl]-N-methyl-6,8-bis(trifluoromethyl)quina-zolin-4-amine]
≥ 80%: percent control (mortality or growth inhibition) at 200 ppm [1] | percent control (mortality, anti-feedant effect or growth inhibition) at 200 ppm [2] | percent control (mortality or growth inhibition) at 200 ppm [3] | percent control (mortality, anti-feedant effect or growth inhibition) at 200 ppm [4]

CC(c1nccnc1-c1ccc(OC(F)F)cn1)N(C)c1ncnc2c(C(F)(F)F)cc(Cl)cc12 (stereo not shown) [P.123, 6-chloro-N-[1-[3-[5-(difluoromethoxy)-2-pyridyl]pyrazin-2-yl]ethyl]-N-methyl-8-(trifluoromethyl)quinazolin-4-amine]
≥ 80%: percent control (mortality or growth inhibition) at 200 ppm [1] | percent control (mortality, anti-feedant effect or growth inhibition) at 200 ppm [2] | percent control (mortality or growth inhibition) at 200 ppm [3] | percent control (mortality, anti-feedant effect or growth inhibition) at 200 ppm [4]

CC(c1ncnn1-c1ccc(C#N)cn1)N(C)c1nccc2c(C(F)(F)F)cc(C(F)(F)F)cc12 (stereo not shown) [P.211, 6-[5-[1-[[5,7-bis(trifluoromethyl)-1-isoquinolyl]-methyl-amino]ethyl]-1,2,4-triazol-1-yl]pyridine-3 carbonitrile]
≥ 80%: percent control (mortality or growth inhibition) at 200 ppm [1] | percent control (mortality, anti-feedant effect or growth inhibition) at 200 ppm [2] | percent control (mortality or growth inhibition) at 200 ppm [3] | percent control (mortality, anti-feedant effect or growth inhibition) at 200 ppm [4]

CC(Nc1ncnc2c(Cl)cc(Br)cc12)c1ncnn1-c1ncccn1 (stereo not shown) [P.159, 6-bromo-8-chloro-N-[1-(2-pyrimidin-2-yl-1,2,4-triazol-3-yl)ethyl]quinazolin-4-amine]
≥ 80%: percent control (mortality or growth inhibition) at 200 ppm [1] | percent control (mortality, anti-feedant effect or growth inhibition) at 200 ppm [2] | percent control (mortality or growth inhibition) at 200 ppm [3] | percent control (mortality, anti-feedant effect or growth inhibition) at 200 ppm [4]

C[C@H](Nc1ncnc2c(Cl)cc(C(F)(F)F)cc12)c1ncnn1-c1ccc(C#N)cn1 [P.17, 6-[5-[(1S)-1-[[8-chloro-6-(trifluoromethyl)quinazolin-4-yl]amino]ethyl]-1,2,4-triazol-1-yl]pyridine-3-carbonitrile]
≥ 80%: percent control (mortality or growth inhibition) at 200 ppm [1] | percent control (mortality, anti-feedant effect or growth inhibition) at 200 ppm [2] | percent control (mortality or growth inhibition) at 200 ppm [3] | percent control (mortality, anti-feedant effect or growth inhibition) at 200 ppm [4]

CC(c1nccnc1-c1ncccn1)N(C)c1ncnc2c(Br)cc(C(F)(F)F)cc12 (stereo not shown) [P.97, 8-bromo-N-methyl-N-[1-(3-pyrimidin-2-ylpyrazin-2-yl)ethyl]-6-(trifluoromethyl)quinazolin-4-amine]
≥ 80%: percent control (mortality or growth inhibition) at 200 ppm [1] | percent control (mortality, anti-feedant effect or growth inhibition) at 200 ppm [2] | percent control (mortality or growth inhibition) at 200 ppm [3] | percent control (mortality, anti-feedant effect or growth inhibition) at 200 ppm [4]

CC(c1ncnn1-c1ccc(Br)cn1)N(C)c1ncnc2c(Cl)cc(C(F)(F)F)cc12 (stereo not shown) [P.240, N-[1-[2-(5-bromo-2-pyridyl)-1,2,4-triazol-3-yl]ethyl]-8-chloro-N-methyl-6-(trifluoromethyl)quinazolin-4-amine]
≥ 80%: percent control (mortality or growth inhibition) at 200 ppm [1] | percent control (mortality, anti-feedant effect or growth inhibition) at 200 ppm [2] | percent control (mortality or growth inhibition) at 200 ppm [3] | percent control (mortality, anti-feedant effect or growth inhibition) at 200 ppm [4]

CC(c1nccnc1-c1ncccn1)N(CC1CC1)c1ncnc2c(C(F)(F)F)cc(Cl)cc12 (stereo not shown) [P.131, 6-chloro-N-(cyclopropylmethyl)-N-[1-(3-pyrimidin-2-ylpyrazin-2-yl)ethyl]-8-(trifluoromethyl)quinazolin-4-amine]
≥ 80%: percent control (mortality or growth inhibition) at 200 ppm [1] | percent control (mortality, anti-feedant effect or growth inhibition) at 200 ppm [2] | percent control (mortality or growth inhibition) at 200 ppm [3] | percent control (mortality, anti-feedant effect or growth inhibition) at 200 ppm [4]

Reference: patent publication US20230002359A1, “PESTICIDALLY ACTIVE FUSED BICYCLIC HETEROAROMATIC COMPOUNDS” (priority 2019, published 2023)
